Source: patent US20030207791A1, “Materials and methods relating to the treatment of leukaemias” (priority 2000, published 2003)

Key:
Type in all cases: cell-based
[1] = tested on: PML-RAR expressing murine primary haemopoietic precursors; experiment: RA relief of differentiation block in transduced murine primary haemopoietic precursors; conditions: RA 3 nM or 1 μM, block by PML-RAR
Source text: (§1) FIG. 5. […] (C-D) Effects of RAR chimeric proteins on differentiation of murine hematopoietic progenitors. Lin-cells were transduced with the indicated retroviral vectors and then sorted by FACS on the basis of their GFP positivity. In the case of ΔCC-PML-RAR, GFP+ cells were sorted in GFP^high or GFP^low expressors.
(§2) Murine hematopoietic progenitors were purified from the bone marrow of 12 weeks old BALB-C mice using commercially available kits (StemCell Tecnology). Cells were selected on the basis of the absence of lineage differentiation markers (lin−). Purified cells were pre-stimulated for two days in medium containing IL-3 (20 ng/ml), IL-6 (20 ng/ml) and stem cell factor (SCF, 100 ng/ml) and then attached to Retronectin (Takara Shuzo)-coated multiwell plates. Cells were incubated for 48 hours with the filtered supernatant from ecotropic packaging cells (Phoenix) transiently transfected with the indicated retroviral constructs (Grignani et al., 1998).

[2] = tested on: CC-RAR expressing murine primary haemopoietic precursors; experiment: as above; conditions: RA 3 nM or 1 μM, block by CC-RAR
Source text: as §1, §2

[3] = tested on: murine hematopoietic progenitors (lin-); experiment: In vitro differentiation of murine hematopoietic progenitor cells transduced with retroviral constructs; conditions: control cells, RA 3 nM or 1 μM; maximum; as described (Purton et al., 1999)
Description: FIG. 5. A heterologous oligomerization domain activates the transforming potential of RAR. (A-B) p53-RAR form oligomers. (A) Nuclear extracts from COS-1 cells transfected with expression vectors for p53-RAR or RAR were incubated with tritiated RA (10 nM), fractionated and analysed as described in FIG. 3A. Note that the low MW peak of RA-binding capacity (coinciding with RAR) in p53-RAR cells derives from expression of wild type RAR, starting from its own ATG-conserved in the p53-RAR expression vector (see below)-. (B) Fractions from gel filtration of in vitro translated, ^35-S labelled p53-RAR were analysed by SDS-PAGE, followed by autoradiography. Note that two products are generated in the reaction: full-length p53-RAR, fractionating in oligomeric complexes, and RAR, starting from the internal ATG site of RAR and fractionating as a monomer. […] After sorting, cells were either plated in differentiation medium in the absence or in the presence of RA (3 nM or 1 μM) (C), or analysed by Western blot (D). […]
The capacity of p53-RAR to block differentiation was evaluated using primary hematopoietic precursors purified from murine bone marrow on the basis of the absence of surface differentiation antigens (lin-see methods). […] After 8-10 days, colonies were pooled and analysed for the expression of myeloid differentiation markers (Mac-1 and GR-1). […]

ΔCC-PML-RAR = experiment: RA sensitivity of transcriptional repression, RARE-G5-TATA reporter; conditions: RA 1 nM-10 μM, repression by ΔCC-PML-RAR
Source text: Light units were normalized to expression of a co-transfected β-galactosidase expression plasmid.

How did the “RA concentration that relieved the differentiation block” value [1] turn out when CC1=C(/C=C/C(C)=C/C=C/C(C)=C/C(=O)O)C(C)(C)CCC1 [RA, retinoic acid] was run?
The value was 1 µM.

And the “RA concentration that relieved the differentiation block” value [2]?
The value was 1 µM.

What about the “reduction in the number of Mac1+ cells” value [3] of the same compound?
The value was 20-30%.

What about the “RA concentration that reverted transcriptional repression” value (ΔCC-PML-RAR) of the same compound?
Its value is “up to 100 nM”.
